Patent US4551538A, “Phenylpyrazolidine acetic acid derivatives” (American Home Products Corporation, priority 1984, dated 1985)
Values joined by “and” are separate entries in the source; they are usually repeats but may differ in a detail not shown here. Equal entries are not always repeated. Where two headings read alike, the source gives them in different places. Blank lines part the entries; values can stand above or below the compound they belong to.

What was measured:
[1] = test system: arachidonic acid lipoxygenase oxidation product 5-HETE; experiment: inhibition of 5-HETE synthesis by rat glycogen-elicited polymorphonuclear leukocytes; type: cell-based, rat (Wistar); conditions: Leukocyte, read-out: 50% Inhibitory Concentration of (IC50) 5-HETE
Description: The assay of this Example measures the ability of the compounds of the invention to inhibit the synthesis of 5-HETE by rat glycogen-elicited polymorphonuclear leukocytes.
The assay is carried out as follows:
(§1) Peritoneal PMN are obtained from female Wistar rats (150-250 g) that received an i.p. injection of 6% glycogen (10 ml). After 24 hours, rats are killed by CO2 asphyxiation and peritoneal cells are harvested by peritoneal lavage using Ca^++ and Mg^++ free Hanks' balanced salt solution (HBSS). The peritoneal exudate is centrifuged at 400 g for 10 minutes. After centrifugation, the lavaged fluid is removed and the cell pellet is resuspended in HBSS containing Ca^++ and Mg^++ and 10 mM L-cysteine at a concentration of 2×10^7 cells/ml. To 1 ml portions of cell suspension, test drugs or vehicle are added and incubated at 37° C. for 10 minutes. Following this preincubation, the calcium ionophore (10 μM), A23187, is added together with 0.5 μCi [^14 C] arachidonic acid and further incubated for 10 minutes. The reaction is stopped by the addition of ice cold water (3 ml) and acidifying to pH 3.5. Lipoxygenase products are then extracted twice into diethyl ether. The pooled ether extracts are evaporated to dryness under nitrogen and the residue is redissolved in a small volume of methanol and spotted on aluminum backed pre-coated thin layer chromatographic plates. The samples are then co-chromatographed with authentic reference 5-HETE, in the solvent system--hexane:ether:acetic acid (50:50:3). After chromatography, the areas associated with 5-HETE standard are identified by autoradiography, cut out and quantitated by liquid scintillation.
(§2) Results are expressed as % inhibition of [^14 C]5-HETE synthesis. [formula]

[2] = test system: arachidonic acid cyclooxygenase oxidation product PGE2; experiment: inhibition of PGE2 synthesis by rat polymorphonuclear leukocytes; type: cell-based, rat (Wistar); conditions: read-out: 50% Inhibitory Concentration (IC50), PGE2
Description: as §1, §2
However, in order to determine cyclooxygenase activity, the samples are cochromatographed with authentic reference PGE2 in the solvent system ethyl acetate:formic acid (80:1) and the upper phase of ethyl acetate:isoctane:acetic acid:water (110:50:20:100). After chromatography, the areas associated with PGE2 standard are identified by autoradiography, cut out and quantitated by liquid scintillation techniques.

[3] = test system: TPA-induced mouse ear edema; experiment: 12-O-tetradecanoylphorbol acetate (TPA)-induced murine ear edema test; type: in vivo, mouse (Swiss Webster); conditions: for % Change from Control, TPA ear edema: * p ≤ 0.05; for ED50: Mus musculus, 4 h
Source text: (§3) The ability of the compounds of the invention to inhibit the lipoxygenase and cyclooxygenase pathways of arachidonic acid is examined in the in vivo arachidonic acid (AA)-/12-O-tetradecanoylphorbol acetate (TPA)-induced murine ear edema test.
(§4) According to this test, Swiss Webster female mice (Buckshire), approximately 8 weeks old, are placed into plastic boxes in groups of six. Eight groups of mice receive AA topically on the right ear, and another 8 groups receive TPA topically on the right ear. AA and TPA are dissolved in acetone at concentrations of 100 mg/ml and 100 μg/ml respectively. The phlogistics are applied to the right ear by the means of an automatic pipet. Volumes of 10 μl are applied to the inner and outer surfaces of the ear. Each mouse receives either 2 mg/ear AA or 4 μg/ear TPA. The left ear (control) receives acetone delivered in the same manner. Oral and topical dosing regimens are as follows: (1) drugs are given 30 minutes prior to AA treatment, and (2) drugs are given 30 minutes after treatment with TPA.
(§5) Measurements are taken with Oditest calipers, 0-10 mm with 0.01 graduations. The right and left ears are measured after 1 hour AA-induced inflammation and 4 hours after TPA-induced inflammation.
(§6) The difference between right and left ear thickness is calculated and the significance is determined by a one way analysis of variance with Dunnett's comparisons to control (P=0.05). Drug effects are expressed as a percent change from control values: [formula]

[4] = test system: acute inflammatory response (carrageenan rat paw edema); experiment: carrageenan rat paw edema test; type: in vivo, rat (Sprague-Dawley); conditions: for % Inhibition of paw edema: 200 mg/kg perorally, 3 h reading; for profile of activity in carrageenan rat paw edema test: in vivo; for ED50: Rattus norvegicus, po, 3 h, read-out: ED50, paw edema
Description: In this test, male Sprague-Dawley (Charles River) rats weighing 140-180 gm, in groups of 6 animals, are injected subcutaneously in the right paw with 0.1 ml of 1% carrageenan at zero time. Mercury plethysmographic readings (ml) of the paw are made at zero time and 3 hours later. Drugs are suspended or dissolved in 0.5% methylcellulose and given perorally one hour prior to carrageenan. The increase in paw volume (edema in ml) produced by the inflammatory agent, carrageenan, is measured.
Unpaired Student's t-test is used to determine statistical significance.

[5] = test system: AA-induced mouse ear edema; experiment: arachidonic acid (AA)-induced murine ear edema test; type: in vivo, mouse (Swiss Webster); conditions: for % Change from Control, AA ear edema: * p ≤ 0.05; for ED50: Mus musculus, 1 h
Source text: as §3, §4, §5, §6

[6] = test system: phenylbenzoquinone-induced writhing; experiment: phenylbenzoquinone-induced writhing test; type: in vivo, mouse (CF-1)
Description: In this procedure, test compound or vehicle is administered at various doses to ten male CF-1 mice, weighing 20-25 g, per dose level. The animals then receive intraperitoneal injection with 0.25 ml of the writhing agonist (a 0.02% solution of benzoquinone) 5 minutes before the beginning of a pre-selected, 10-minute observation period. Typical observation periods include 10 to 20, 25 to 35, 40 to 50 and 55 to 65 minutes following administration of the test compound. The mice are observed during the observation period and the total numbers of writhes are determined for each mouse.

[7] = test system: urate-induced canine synovitis; experiment: urate-induced canine synovitis test; type: in vivo, dog (mongrel); conditions: Canis lupus familiaris, read-out: Oral ED50
Description: In this procedure, healthy mongrel dog of either sex weighing between 14-20 kg are adapted to a measuring platform. […] A Hewlett Packard 75C computer then converts voltage into kilogram units (mean pressure reading for 1 minute). This control pressure represents the 100% value in this procedure. Synovitis is induced by injecting 5 mg of sodium urate crystals (5-15μ in length) in 1 ml of 0.9% saline solution into the synovial space of the right or left knee. Readings are taken at 1, 2, 2.5, 3, 3.5, 4, 4.5 and 5 hours after urate administration and calculated as a percentage of control hind paw pressure. […] Dogs are used only once in these experiments to prevent tolerance.
Each dog is placed on the pressure measuring apparatus with its left or right hind paw centered above the load cell, and pressure readings are recorded for one minute. Two or three control readings are averaged and represent control paw pressure. Single pressure readings are taken after sodium urate injection.
Drug effects are expressed as a percentage of control paw pressure which is calculated as follows:
Test reading/Control reading×100
Test reading=Pressure measurement after sodium urate injection and drug or no drug (blank capsule).
Control reading=Mean pressure measurement before sodium urate injection.
A one-way analysis of variance with Dunnett's comparisons to control (α=0.05 and 0.01) was used to determine statistical significance.

cyclooxygenase = conditions: background statement; cited from earlier work
lipoxygenase = conditions: background statement; cited from earlier work
[8] = rat PMN, A23187 10 μM, [14C] arachidonic acid
[9] = Leukocyte, rat PMN, A23187 10 μM, [14C] arachidonic acid
[10] = 200 mg/kg; Control = 15.5; * p ≤ 0.05
[11] = perorally, 1 h prior to carrageenan

Compound: O=C(O)C(O)N1C(=O)CCN1c1cccc(Cl)c1 (stereo not drawn) [Example 3, 2-(m-Chlorophenyl)-α-hydroxy-5-oxo-1-pyrazolidine acetic acid]
- IC50 [1, 8]: 2 to 5 µM
- IC50 [2, 9]: 110 µM
- % Change from Control, TPA ear edema ([3]; oral, 50 mg/kg, 4 h after TPA): -8%
- % Inhibition of paw edema ([4]; 1 h prior to carrageenan): 29%
- % Change from Control, AA ear edema ([5]; oral, 50 mg/kg, 1 h after AA): -5%

Compound: O=C(O)C(O)N1C(=O)CCN1c1cccc([N+](=O)[O-])c1 (stereo not drawn) [Example 6, α-Hydroxy-5-oxo-2-(3-nitrophenyl)-1-pyrazolidine acetic acid]
- IC50 [1, 8]: < 50 µM
- % Change from Control, TPA ear edema ([3]; oral, 100 mg/kg, 4 h after TPA): -23%
- % Change from Control, AA ear edema ([5]; oral, 100 mg/kg, 1 h after AA): +4%

Compound: NC1=NN(c2cccc(C(F)(F)F)c2)CC1 [BW755C, 3-amino-1-[m-(trifluoromethyl)phenyl]-2-pyrazoline, reference compound]
- IC50 ([1]; Rattus norvegicus): 43 µM
- IC50 ([2]; Rattus norvegicus, Leukocyte): 25 µM
- ED50 ([3]; oral): 88 mg/kg
- ED50 ([6]; Mus musculus; read-out: ED50, writhing): 100 mg/kg
- ED50 [4, 11]: 72 mg/kg
- ED50 ([7]; oral, 2 h after urate): 1.5 mg/kg
- inhibition of cyclooxygenase activity (cyclooxygenase): inhibitors of both cyclooxygenase and lipoxygenase activity
- inhibition of lipoxygenase activity (lipoxygenase): inhibitors of both cyclooxygenase and lipoxygenase activity
- ED50 ([5]; oral): 65 mg/kg

Compound: COc1ccc2c(c1)c(CC(=O)O)c(C)n2C(=O)c1ccc(Cl)cc1 [indomethacin, reference compound]
- activity in TPA ear edema ([3]; oral, 10 mg/kg): NA(10)
- ED50, TPA ear edema ([3]; topical): 0.08 mg/ear
- ED50 ([6]; Mus musculus, read-out: ED50, writhing): 10 mg/kg
- ED50 [4]: 5.6 mg/kg
- ED50 ([7]; po, 2 h): 0.3 mg/kg
- activity in AA ear edema ([5]; oral, 10 mg/kg): NA(10)
- ED50, AA ear edema ([5]; topical): 0.1 mg/ear

Compound: CC(=O)Oc1ccccc1C(=O)O [aspirin, reference compound]
- Mean No. of Writhes [6, 10]: 6.6

Compound: O=C1CCN(c2ccccc2)N1 [phenidone, 1-phenyl-3-pyrazolidone, reference compound]
- IC50 [1, 8]: 12 µM
- IC50 [2, 9]: > 100 µM
- ED50 ([3]; oral): 235 mg/kg
- ED50, TPA ear edema ([3]; topical): 0.6 mg/ear
- Mean No. of Writhes ([6]; 200 mg/kg; Control = 4.0): 2.2
- ED50 [4, 11]: 196 mg/kg
- ED50 ([7]; oral, 2 h after urate): 4.3 mg/kg
- inhibition of cyclooxygenase activity (cyclooxygenase): inhibitors of both cyclooxygenase and lipoxygenase activity
- inhibition of lipoxygenase activity (lipoxygenase): inhibitors of both cyclooxygenase and lipoxygenase activity
- ED50 ([5]; oral): 84 mg/kg
- ED50, AA ear edema ([5]; topical): 0.1 mg/ear

More lines, main results first:

- IC50 [1, 8]: 2 to 3 µM
- IC50 [2, 9]: 140 µM
Compound: O=C(O)C(O)N1C(=O)CCN1c1ccc(Cl)cc1 (stereo not drawn) [Example 5, 2-(4-Chlorophenyl)-α-hydroxy-5-oxo-1-pyrazolidine acetic acid]
- % Change from Control, TPA ear edema ([3]; oral, 50 mg/kg, 4 h after TPA): -8%
- % Inhibition of paw edema ([4]; 1 h prior to carrageenan): 30%
- % Change from Control, AA ear edema ([5]; oral, 50 mg/kg, 1 h after AA): -22%

- IC50 [1, 8]: 5 to 13 µM
Compound: O=C(O)C(O)N1C(=O)CCN1c1cccc(F)c1 (stereo not drawn) [Example 4, 2-(3-Fluorophenyl)-α-hydroxy-5-oxo-1-pyrazolidine acetic acid]
- % Change from Control, TPA ear edema ([3]; oral, 50 mg/kg, 4 h after TPA): 0%
- % Change from Control, TPA ear edema ([3]; oral, 100 mg/kg, 4 h after TPA): -27%
- % Change from Control, TPA ear edema ([3]; topical, 0.1 mg/ear): -10%
- % Change from Control, TPA ear edema ([3]; topical, 0.33 mg/ear): -23%
- % Change from Control, TPA ear edema ([3]; topical, 1.0 mg/ear): -45%
- Mean No. of Writhes ([6]; 100 mg/kg; Control = 4.5): 3.8
- Mean No. of Writhes [6, 10]: 1.7
- % Inhibition of paw edema ([4]; 1 h prior to carrageenan): 44%
- profile of activity in carrageenan rat paw edema test [4]: a profile of activity similar to that of phenidone
- % Change from Control, AA ear edema ([5]; oral, 100 mg/kg, 1 h after AA): -11%
- % Change from Control, AA ear edema ([5]; topical, 0.1 mg/ear): -27%
- % Change from Control, AA ear edema ([5]; topical, 0.33 mg/ear): -38%
- % Change from Control, AA ear edema ([5]; topical, 1.0 mg/ear): -63%

- IC50 [1, 8]: 3 to 5 µM
Compound: O=C(O)C(O)N1C(=O)CCN1c1ccccc1 (stereo not drawn) [Example 2, α-Hydroxy-5-oxo-2-phenyl-1-pyrazolidine acetic acid]
- % Change from Control, TPA ear edema ([3]; oral, 100 mg/kg, 4 h after TPA): -8%
- % Change from Control, TPA ear edema ([3]; topical, 0.1 mg/ear): -12%
- % Change from Control, TPA ear edema ([3]; topical, 0.33 mg/ear): -31%
- % Change from Control, TPA ear edema ([3]; topical, 1.0 mg/ear): -23%
- Mean No. of Writhes ([6]; 100 mg/kg; Control = 5.1): 3.5
- Mean No. of Writhes ([6]; 133 mg/kg; Control = 15.5; * p ≤ 0.05): 3.2
- % Inhibition of paw edema ([4]; 1 h prior to carrageenan): 46%
- profile of activity in carrageenan rat paw edema test [4]: a profile of activity similar to that of phenidone
- ED50 ([7]; oral, 2 h after urate): 5 mg/kg
- % Change from Control, AA ear edema ([5]; oral, 100 mg/kg, 1 h after AA): -30%
- % Change from Control, AA ear edema ([5]; topical, 0.1 mg/ear): -21%
- % Change from Control, AA ear edema ([5]; topical, 0.33 mg/ear): -26%
- % Change from Control, AA ear edema ([5]; topical, 1.0 mg/ear): -54%

- IC50 [2, 8]: < 50 µM
Compound: O=C(O)C(O)N1C(=O)CCN1c1cccc(C(F)(F)F)c1 (stereo not drawn) [Example 1, α-Hydroxy-5-oxo-2-[3-(trifluoromethyl)phenyl]-1-pyrazolidine acetic acid]
- % Change from Control, AA ear edema ([5]; topical, 1.0 mg/ear): -83% and -74%
